Experimental data as given in the NIST ThermoML archive (doi:10.1021/je800789b).
Numbers after ± are expanded uncertainties.

Conditions: Crystal

Compound	Normal melting temperature [°C]
O=C(O)CC1CCCCC1 [cyclohexylethanoic acid]	29.8 ± 1.2
O=C(O)C1CCCCC1 [cyclohexanecarboxylic acid]	29.8 ± 1.2
CCCCCCCCCCO [decan-1-ol]	6.2 ± 0.4
CCCCCCCCCCCCO [dodecan-1-ol]	24.1 ± 0.6
